Assay results taken from US7585895B2, “Therapeutic substituted cyclopentanes” (Allergan, Inc., priority 2005, dated 2009).

Key:
EP2 = EP2 (Homo sapiens, UniProt P43116); assay: Competition binding, [3H]PGE2, EP2 (Ki); set-up: expressed in transfected cells; membranes or whole cells; details: HEK 293 cells stably expressing human EP2, [3H]PGE2
Summary of the method: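 Membranes (~60 μg protein) or 2×10^5 HEK 293 cells stably expressing human EP2, in HBSS/20 mM Hepes pH 7.3 with [3H]PGE2 (10 nM), 60 min at 23° C, then filtration. Non-specific binding with 10 μM unlabeled PGE2; single-site fit IC50 converted to Ki using KD 40 nM.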

EP4 receptors = biological target: T1, EP4 receptors (Homo sapiens, UniProt P35408); assay: Radioligand binding, [3H]PGE2, EP4 (Ki); details: HEK-293 cells stably expressing EP4, [3H]PGE2
T1 construct: expressed in transfected cells; membrane pellet
Summary of the method: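 Membranes from HEK-293 cells stably expressing human EP4 were incubated 60 min at 25 °C with 5 nM [3H]PGE2 and competitor in TME buffer pH 7.4, then filtered over GF/B. Non-specific binding defined with 10^−5 M unlabeled PGE2; duplicate points, at least three experiments.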

hFP = biological target: T2, hFP (Homo sapiens, UniProt P43088); assay: FLIPR calcium signal, FP; assay type: cell-based; details: HEK-293(EBNA)
T2 construct: expressed in transfected cells
Summary of the method: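 Stably transfected HEK-293(EBNA) cells loaded with 2 μM Fluo-4 AM in HBSS-HEPES pH 7.4, 37° C; peak fluorescence rise after compound addition (FLIPR, 488 nm excitation) expressed relative to buffer and standard agonist controls (PGE2 for EP subtypes, U-46619 for TP). Tested 10^−5 to 10^−11 M, duplicates, n≧3.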

hEP4/Gqs5 = biological target: T3, hEP4/Gqs5 (Homo sapiens, UniProt P35408); assay: FLIPR calcium signal, EP4; assay type: cell-based; details: HEK-293(EBNA); for EC50: read-out: Ca2+ Signal-EC50 (nM) EP4
T3 construct: expressed in transfected cells
Summary of the method: (§1)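 Stable HEK-293(EBNA) lines expressing recombinant human EP1, TP, or EP2/EP4 coupled via Gqs5; Fluo-4 AM loaded (2 μM, 45 min), HBSS-HEPES pH 7.4, 37° C. Peak FLIPR fluorescence expressed relative to buffer and standard agonist (PGE2 for EP receptors, U-46619 for TP); compounds at 10^−5 M or 10^−5–10^−11 M, duplicates, n≧3.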

hTP = biological target: T4, hTP (Homo sapiens, UniProt P21731); assay: FLIPR calcium signal, TP; assay type: cell-based; details: HEK-293(EBNA)
T4 construct: expressed in transfected cells
T4 sequence (P21731 1-343): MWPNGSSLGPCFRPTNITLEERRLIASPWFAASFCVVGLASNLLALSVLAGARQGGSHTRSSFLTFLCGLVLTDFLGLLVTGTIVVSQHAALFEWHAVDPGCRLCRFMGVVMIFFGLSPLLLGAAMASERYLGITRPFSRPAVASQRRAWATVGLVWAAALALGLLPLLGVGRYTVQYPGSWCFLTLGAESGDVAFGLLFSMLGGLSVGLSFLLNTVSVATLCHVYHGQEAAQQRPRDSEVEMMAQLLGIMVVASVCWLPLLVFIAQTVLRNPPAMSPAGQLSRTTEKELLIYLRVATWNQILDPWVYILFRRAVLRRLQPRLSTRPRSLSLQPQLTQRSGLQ
Summary of the method: as §1

T2 sequence (P43088 whole entry): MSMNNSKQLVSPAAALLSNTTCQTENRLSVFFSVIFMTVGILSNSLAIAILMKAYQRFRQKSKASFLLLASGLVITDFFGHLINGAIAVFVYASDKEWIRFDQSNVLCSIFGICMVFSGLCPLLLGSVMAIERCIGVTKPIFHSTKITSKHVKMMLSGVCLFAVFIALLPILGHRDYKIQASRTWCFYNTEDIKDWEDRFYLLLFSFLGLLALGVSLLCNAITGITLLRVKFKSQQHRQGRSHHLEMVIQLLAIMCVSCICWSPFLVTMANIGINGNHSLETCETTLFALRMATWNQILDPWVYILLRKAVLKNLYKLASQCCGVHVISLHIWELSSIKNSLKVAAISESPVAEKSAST
T3 sequence (P35408 whole entry): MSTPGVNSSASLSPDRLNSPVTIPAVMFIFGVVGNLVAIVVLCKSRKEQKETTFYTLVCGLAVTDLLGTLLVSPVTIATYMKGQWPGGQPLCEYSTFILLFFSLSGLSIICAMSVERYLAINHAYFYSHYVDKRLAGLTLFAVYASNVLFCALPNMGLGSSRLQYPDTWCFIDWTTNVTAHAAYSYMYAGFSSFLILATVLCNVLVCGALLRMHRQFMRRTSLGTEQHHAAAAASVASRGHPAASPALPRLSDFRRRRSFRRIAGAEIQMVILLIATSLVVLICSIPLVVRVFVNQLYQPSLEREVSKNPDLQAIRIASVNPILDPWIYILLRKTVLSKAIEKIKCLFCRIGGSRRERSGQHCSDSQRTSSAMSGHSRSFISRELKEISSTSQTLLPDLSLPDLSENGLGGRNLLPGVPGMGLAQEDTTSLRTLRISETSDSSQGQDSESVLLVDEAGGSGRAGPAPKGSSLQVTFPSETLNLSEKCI
T1 sequence (P35408 whole entry): as above
Sequence of EP2 (P43116 whole entry): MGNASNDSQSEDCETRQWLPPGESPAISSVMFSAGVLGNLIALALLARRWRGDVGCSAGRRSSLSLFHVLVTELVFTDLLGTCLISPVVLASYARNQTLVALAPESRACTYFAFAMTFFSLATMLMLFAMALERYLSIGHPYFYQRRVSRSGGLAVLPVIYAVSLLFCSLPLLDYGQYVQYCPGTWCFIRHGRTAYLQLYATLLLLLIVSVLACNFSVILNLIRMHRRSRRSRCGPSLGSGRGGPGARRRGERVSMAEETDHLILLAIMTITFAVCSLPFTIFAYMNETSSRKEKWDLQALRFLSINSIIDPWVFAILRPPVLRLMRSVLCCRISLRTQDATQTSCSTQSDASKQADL

SMILES | Ki (EP2) | Ki (EP4 receptors) | Ca2+ Signal-EC50 (nM) FP (hFP) | Ca2+ Signal-EC50 (nM) EP4 (hEP4/Gqs5) | Ca2+ Signal-EC50 (nM) TP (hTP) | EC50 (hEP4/Gqs5)
CCCCCC(O)c1ccc([C@@H]2[C@@H](CCCc3ccc(C(=O)O)s3)[C@H](Cl)C[C@H]2O)cc1 (stereo partly drawn) [Entry 2, 5-(3-{(1R,2S,3R,5R)-5-Chloro-3-hydroxy-2-[4-(1-hydroxy-hexyl)-phenyl]-cyclopentyl}-propyl)-thiophene-2-carboxylic acid] | 24 nM | 3020 nM | not active | not active | not active | –
CCCCCC(O)c1ccc([C@@H]2[C@@H](C/C=C\CCCC(=O)O)[C@H](Cl)C[C@H]2O)cc1 (single isomer, unassigned) [Entry 13] | 73 nM | > 10000 nM | not active | – | not active | > 10000 nM
CCCCCCC(O)c1ccc([C@@H]2[C@@H](C/C=C\CCCC(=O)O)[C@H](Cl)C[C@H]2O)cc1 (stereo partly drawn) [Entry 25, (Z)-7-{(1R,2S,3R,5R)-5-Chloro-3-hydroxy-2-[4-(1-hydroxy-heptyl)-phenyl]-cyclopentyl}-hept-5-enoic acid] | 278 nM | 2260 nM | not active | not active | not active | –
CCCC1(C(O)c2cccc([C@@H]3[C@@H](Cc4cccc(CCC(=O)O)c4)[C@H](Cl)C[C@H]3O)c2)CCC1 (stereo partly drawn) [Entry 4, 3-[3-((1R,2S,3R,5R)-5-Chloro-3-hydroxy-2-{3-[hydroxy-(1-propyl-cyclobutyl)-methyl]-phenyl}-cyclopentylmethyl)-phenyl]-propionic acid] | > 10000 nM | > 10000 nM | not active | – | not active | > 10000 nM
O=C(O)CCC/C=C\C[C@@H]1[C@@H](c2ccc(C(O)CCc3ccccc3)cc2)[C@H](O)C[C@H]1Cl (stereo partly drawn) [Entry 23, (Z)-7-{(1R,2S,3R,5R)-5-Chloro-3-hydroxy-2-[4-(1-hydroxy-3-phenyl-propyl)-phenyl]-cyclopentyl}-hept-5-enoic acid] | 1130 nM | > 10000 nM | not active | – | not active | > 10000 nM
